“Also recorded” adds a separate entry of the source.
Columns and labels:
Format in all cases: physicochemical
[1] = Accelerated stress conditions (relative humidity stress), solid form by XRPD; details: two weeks
Experimental: Relative Humidity Stress: Solids are stored at approximately 40° C./75% RH condition for a measured time period by placing the solids into a vial inside a sealed temperature/humidity chamber at the controlled condition. Samples are analyzed after removal from the stress environment.
Crystalline Forms A, B, and C are exposed to accelerated stress conditions for two weeks (Table 18 below). […] Crystalline Form C is metastable at this condition.
Experimental: Relative Humidity Stress
The following relative humidity jars (saturated salt solutions are used to generate desired relative humidity) are utilized: 75% RH (NaCl) and 56% RH (NaBr) (Nyqvist, H., Int. J. Pharm. Tech. &Prod. Mfr. 1983, 4 (2), 47-48).

[2] = Slurry in dichloromethane at ambient temperature, solvent mediated form conversion by XRPD; details: 16 days, no seeds, hydrochloride
Experimental: (§1) Slurry Experiments: Suspensions are prepared by adding enough solids to a given solvent so that excess solids are present. The mixture is then agitated in a sealed vial at ambient temperature or an elevated temperature. After a given period of time, the solids are isolated by vacuum filtration and analyzed.
558.9 mg of Crystalline Form A from Example 5 above is slurried in 5 mL dichloromethane. The preparation is stirred (300 RPM) in a sealed vial at ambient temperature for 16 days. White solids are isolated by vacuum filtration, rinsed with 1 mL of dichloromethane, and briefly dried under nitrogen. […] The XRPD pattern is collected with a PANalytical X'Pert PRO MPD diffractometer using an incident beam of Cu radiation produced using an Optix long, fine-focus source. An elliptically graded multilayer mirror is used to focus Cu Kα X-rays through the specimen and onto the detector. Prior to the analysis, a silicon specimen (NIST SRM 640e) is analyzed to verify the observed position of the Si 111 peak is consistent with the NIST-certified position. A specimen of the sample is sandwiched between 3-μm-thick films and analyzed in transmission geometry. A beam-stop, short antiscatter extension, and an antiscatter knife edge are used to minimize the background generated by air. Soller slits for the incident and diffracted beams are used to minimize broadening from axial divergence. […]

[3] = Dynamic vapor sorption/desorption isotherm (moisture balance); details: 25° C.
Text: Based on the dynamic vapor sorption/desorption data collected (FIG. 3), Crystalline Form A obtained is a non-hygroscopic material.
Data acquisition parameters for dynamic vapor sorption/desorption isotherm: […]

[4] = Polymorph screen: crystallization, slurry, vapor stress and pH buffer experiments, XRPD result
Experimental: Antisolvent Precipitation: Solutions are prepared in various solvents and filtered through a 0.2-μm nylon filter into a vial. Antisolvent is then added until precipitation is observed. The resulting solids are isolated by vacuum filtration and analyzed.
Crash Cool (CC): Solutions are prepared in various solvents at an elevated temperature and filtered warm through a 0.2-μm nylon filter into a pre-cooled vial. The vial is placed in a (dry ice+isopropanol) cooling bath. Samples are placed into a freezer if no solids are observed to immediately precipitate. The resulting solids are isolated by vacuum filtration and analyzed.
Fast Evaporation (FE): Solutions are prepared in various solvents and sonicated between aliquot additions to assist in dissolution. Once a mixture reaches complete dissolution, as judged by visual observation, the solution is filtered through a 0.2-μm nylon filter. The filtered solution is allowed to evaporate at ambient conditions in an uncapped vial. Solutions are evaporated to dryness unless designated as partial evaporations. The solids that formed are isolated and analyzed.
Slow Cooling (SC): Solutions are prepared in various solvents at an elevated temperature. The solutions are filtered warm through a 0.2-μm nylon filter into a warm vial. The vial is capped and left on the hot plate, and the hot plate is turned off to allow the sample to cool slowly to ambient temperature. If no solids are present after cooling to ambient temperature, the sample is placed in a refrigerator and/or freezer for further cooling. Solids are collected by vacuum filtration and analyzed.
Slow Evaporation (SE): Solutions are prepared in various solvents and sonicated to assist in dissolution. Once a mixture reaches complete dissolution, as judged by visual observation, the solution is filtered through a 0.2-μm nylon filter. The filtered solution is allowed to evaporate at ambient conditions in a vial covered with aluminum foil perforated with pinholes. Solutions are evaporated to dryness unless designated as partial evaporations. The solids that form are isolated and analyzed.
as §1
Vapor Diffusion (VD): Solutions are prepared in various solvents and filtered through a 0.2-μm nylon filter. The filtered solution is dispensed into a 1-dram vial, which is then placed inside a 20-mL vial containing antisolvent. The 1-dram vial is left uncapped and the 20-mL vial is capped to allow vapor diffusion to occur. The resulting solids are isolated and analyzed.
Vapor Stress (VS): A solid sample is placed into a 1-dram vial. The 1-dram vial is then placed into a 20-mL vial containing solvent. The 20-mL vial is capped and left at ambient conditions for a measured time period. Samples are analyzed after removal from the stress environment.
Crystalline Form A through Form F are prepared as follows by using Crystalline Form A obtained from Example 1 above. A variety of crystallization techniques are used, including evaporation, cooling, solvent/antisolvent precipitation, slurry, vapor stress, and vapor diffusion, as described above.
Crystalline Forms D, E, and F—Crystalline Form A is dissolved in pH adjusted buffered media. Undissolved solid or precipitate observed is analyzed by XRPD. Some experiments are conducted at elevated temperature to increase solubility, the undissolved solids are also analyzed by XRPD.
Crystalline Form A from Example 5 is used to make the following crystalline forms.

SMILES: Cl.c1ccc2cc([C@]34CNC[C@H]3C4)ccc2c1 [Crystalline Form A, (1R,5S)-1-(naphthalen-2-yl)-3-azabicyclo[3.1.0]hexane hydrochloride]
- solid form by XRPD after accelerated stress ([1]; 30° C./56% RH): remain unchanged
- solid form by XRPD after accelerated stress ([1]; 40° C./75% RH, hydrochloride): remain unchanged
- solid form after slurry in dichloromethane [2]: Product is Crystalline Form A; also recorded: does not cause a solvent mediated form conversion to Crystalline Form B
- weight loss upon initial equilibration at 5% RH [3]: 0.03%
- hygroscopicity based on dynamic vapor sorption/desorption data ([3]; 5% to 95% RH): non-hygroscopic
- weight gain from 5% to 95% RH ([3]; sorption): 0.10%
- Weight % chg ([3]; desorption, Samp RH 4.95%): −0.032 % chg
- Weight % chg ([3]; desorption, Samp RH 15.20%): −0.025 % chg
- Weight % chg ([3]; desorption, Samp RH 25.12%): −0.021 % chg
- Weight % chg ([3]; desorption, Samp RH 35.13%): −0.016 % chg
- Weight % chg ([3]; desorption, Samp RH 45.09%): −0.013 % chg
- Weight % chg ([3]; desorption, Samp RH 55.08%): −0.007 % chg
- Weight % chg ([3]; desorption, Samp RH 64.96%): 0.003 % chg
- Weight % chg ([3]; desorption, Samp RH 75.28%): 0.019 % chg
- Weight % chg ([3]; desorption, Samp RH 85.08%): 0.037 % chg
- Weight % chg ([3]; sorption, Samp RH 5.06%): −0.034 % chg
- Weight % chg ([3]; sorption, Samp RH 15.24%): −0.025 % chg
- Weight % chg ([3]; sorption, Samp RH 24.81%): −0.024 % chg
- Weight % chg ([3]; sorption, Samp RH 34.82%): −0.019 % chg
- Weight % chg ([3]; sorption, Samp RH 44.81%): −0.016 % chg
- Weight % chg ([3]; sorption, Samp RH 54.86%): −0.012 % chg
- Weight % chg ([3]; sorption, Samp RH 64.82%): −0.005 % chg
- Weight % chg ([3]; sorption, Samp RH 74.66%): 0.005 % chg
- Weight % chg ([3]; sorption, Samp RH 84.55%): 0.024 % chg
- Weight % chg ([3]; sorption, Samp RH 94.54%): 0.068 % chg
- Weight % chg ([3]; start, Samp RH 1.70%): 0.000 % chg
- XRPD Result ([4]; 1-propanol, CC (70° C. to dry ice/IPA), freezer/2 d): B + weak A
- XRPD Result ([4]; DCM, SE): A + B
- XRPD Result ([4]; EtOH, CC (70° C. to dry ice/IPA), freezer/2 d): C + weak A
- XRPD Result ([4]; EtOH, FE): A + B
- XRPD Result ([4]; EtOH, SC (70° C. to RT, refrigerator/2 d, freezer/8 d)): A + weak C
- XRPD Result ([4]; HFIPA/IPE, AS precipitation): A + weak
- XRPD Result ([4]; HFIPA, SE): A + weak B
- XRPD Result ([4]; IPA, CC (70° C. to dry ice/IPA), freezer/2 d, about 27 mg scale, 10 mg/mL): C + possible
- XRPD Result ([4]; TFE, SE): A + weak B
